From patent US6562758B1 (priority 1999, dated 2003)
Several values for one entry are separate records, joined by “and”; a condition that tells them apart may be missing. Identical values can stand only once. Like-named read-outs stand apart in the source and are kept apart here.

How the values were obtained:
Conditions in all cases: in vivo
red kidney bean plants [1] = tested on: red kidney bean plants
red kidney bean plants [2] = tested on: red kidney bean plants; remark: listed apart in the source
cotton plants [3] = tested on: cotton plants; set-up: species or system cotton (Gossypium hirsutum)
cotton plants [4] = tested on: cotton plants; set-up: species or system cotton (Gossypium hirsutum); remark: listed apart in the source
kidney beans [5] = tested on: kidney beans; set-up: species or system kidney bean
cotton plants [6] = tested on: cotton plants; set-up: species or system cotton (Gossypium hirsutum); remark: listed apart in the source
cotton plants [7] = tested on: cotton plants; set-up: species or system cotton (Gossypium hirsutum); remark: listed apart in the source
potato plants = tested on: potato plants
kidney beans [8] = tested on: kidney beans; set-up: species or system kidney bean; remark: listed apart in the source

O=P(O)(O)CCCl [ETP, (2-chloroethyl)phosphonic acid]
% Defoliation (red kidney bean plants [1]): 18% and 20% | % Regrowth (red kidney bean plants [2]): 10% | % Defoliation (cotton plants [3]): 31% and 49% | % Regrowth 20 DAT (cotton plants [4]): 36.3% | % Defoliation 15 DAT (kidney beans [5]): 28% | % Regrowth Avg. (cotton plants [6]): 51% | % Defoliation (cotton plants [7]): 58% and 78%

C[n+]1ccc(-c2cc[n+](C)cc2)cc1 [Paraquat, paraquat]
Percent Defoliation (potato plants): 76% and 44%

C/C(=N\NC(=O)Nc1cc(F)cc(F)c1)c1ncccc1C(=O)O [DFP, diflufenzopyr]
% Defoliation 15 DAT (kidney beans [5]): 59% | regrowth (kidney beans [8]): reduced regrowth as compared to the untreated check | % Regrowth Avg. (cotton plants [6]): 7% and 6% | % Defoliation (cotton plants [7]): 23% and 40% and 39% and 21%

CCOC(=O)/C(Cl)=C/c1cc(N2C(=O)C3=C(CCCC3)C2=O)ccc1Cl [BAS 123W, cinidon-ethyl]
% Regrowth at 21 DAT (kidney beans [8]): 124% and 110% and 73% | regrowth (kidney beans [8]): tended to promote regrowth
